Where two headings read alike, the source gives them in different places.

Data set [1] addresses T1, FR-α (Homo sapiens, UniProt P15328).
T1 construct: endogenous in cells; host or cells: KB cells
The experiment in a line: Displacement assay with [^3H]folic acid using KB cells. Type of data set: binding. To be noted: for fold lower affinity to the FR-α compared to the oxidized form: versus 3′-aza-2′-fluorofolic acid.

In data set [2] the target is T2, RT16 (FR-α) (Homo sapiens, UniProt P15328).
T2 construct: expressed in transfected cells; host or cells: CHO cells (RT16)
In words: Cell uptake and internalization in FR-α transfected CHO cells (RT16). The format is cell-based. Here is the method: (§1) The uptake and internalization of the oxidized (^18F-AzaFol) and reduced ^18F-folates (6S-isomer and 6R-isomer of ^18F-5-Me-Aza-THF) in D4 and RT16 cells which express the FR-α and FR-β, […] was studied. Both cell lines were kindly provided by Larry Matherly Wayne State University, Detroit, U.S.; Golani et al., J Med Chem, 2016, 59, 7856.
The internalized fraction of the radiotracers reached 8-10% after 1 h and increased slightly up to 9-12% after 3 h incubation.

Data set [3] has as its target T3, D4 (FR-β) (Homo sapiens, UniProt P14207).
T3 construct: expressed in transfected cells; host or cells: CHO cells (D4)
The experiment in a line: Cell uptake and internalization in FR-β transfected CHO cells (D4). The format is cell-based. Here is the method:
as §1
When using D4 cells that express the FR-β, the uptake of ^18F-AzaFol and the 6S-isomer of the reduced radiotracer reached approximately 70% after 1 h incubation and 80% after 3 h incubation. The internalized fraction of ^18F-AzaFol and the 6S-isomer of the reduced version was 20% and 12%, respectively, after 1 h incubation. These numbers increased slightly when the incubation time was extended to 3 h. […] No change was observed after additional two hours of incubation.

The nature of data set [4]: Metabolite studies / in vivo stability (radio-UPLC of blood plasma, liver, urine). To be noted: comparison tracer. The arrangement: species or system mice. Here is the method: In order to investigate FR-specific cell uptake and internalization, cell uptake and internalization of 6R-[^18F]1 and 6S-[^18F]1 were carried out using FR-positive KB cells. Cell uptake increased constantly over time for both diastereoisomers resulting in an uptake of about 60% (calculated per 0.3 mg of protein) of total added radioactivity after 3 h of incubation at 37° C. (FIG. 22).
The folate radiotracer 6S/6R-[^18F]5 (1:1 ratio, 53.7-52.3 MBq; 0.62-1.15 nmol) were intravenously injected into mice in order to determine the in vivo stability of the tracers. […] Ice-cold methanol containing 10 mg/mL 2-mercaptoethanol and 0.025% (v/v) ammonium hydroxide was added to the blood plasma, homogenized liver and urine in order to precipitate the proteins.^6 After centrifugation, the supernatants of the blood plasma, liver and urine samples were analyzed by radio-UPLC (FIG. 4).

Setting [5] is: KB cells, displacement of [^3H]folic acid, n = 3.

T3 sequence (P14207 17-230): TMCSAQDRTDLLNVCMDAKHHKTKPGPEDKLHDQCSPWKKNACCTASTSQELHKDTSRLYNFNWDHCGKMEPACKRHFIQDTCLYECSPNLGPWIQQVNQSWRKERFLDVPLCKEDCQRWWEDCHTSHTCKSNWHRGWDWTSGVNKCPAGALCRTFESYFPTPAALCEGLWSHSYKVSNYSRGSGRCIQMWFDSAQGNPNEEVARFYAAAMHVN
T1 sequence (P15328 25-234): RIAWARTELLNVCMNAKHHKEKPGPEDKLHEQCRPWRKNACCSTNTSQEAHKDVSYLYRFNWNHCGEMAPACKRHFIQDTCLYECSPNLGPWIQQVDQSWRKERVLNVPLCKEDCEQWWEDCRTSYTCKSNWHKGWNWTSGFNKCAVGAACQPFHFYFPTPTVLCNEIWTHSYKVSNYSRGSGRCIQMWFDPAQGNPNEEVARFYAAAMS
T2 sequence (P15328 25-234): as above

What is called IC50 is the concentration at which inhibition is half-maximal. Low readings indicate greater potency, high ones weaker potency. For `Nc1nc2ncc(CNc3ccc(C(=O)N[C@@H](CCC(=O)O)C(=O)O)c(F)n3)nc2c(=O)[nH]1` [3′-aza-2′-[^18F]fluorofolic acid, reference compound], the IC50 in data set [1] (setting [5]) came to 1.4 ± 0.5 nM.

For `Nc1nc2ncc(CNc3ccc(C(=O)N[C@@H](CCC(=O)O)C(=O)O)c([18F])n3)nc2c(=O)[nH]1` [3′-aza-2′-[^18F]fluorofolic acid, reference compound], the “uptake into RT16 cells (in words)” value in data set [2] was “significant uptake”. In addition, the “uptake into D4 cells (in words)” value in data set [3] (D4 (FR-β) cells) is recorded as “significant uptake”. The same molecule came in with an internalized fraction in data set [3] (D4 cells, 1 h incubation) of 20%. The uptake result in data set [3] (D4 cells, 1 h incubation) is “approximately 70%”; in data set [3] (D4 cells, 3 h incubation), around 80%. Besides, the “in vivo stability (radiometabolites)” value in data set [4] is listed as “radiometabolites in the liver were detected”.

For `CN1c2c(nc(N)[nH]c2=O)NCC1CNc1ccc(C(=O)NC(CCC(=O)O)C(=O)O)c(F)n1` (stereo not drawn) [Compound 6R-1, 6R-3′-Aza-2′-Fluoro-5-Methyltetrahydrofolate], in data set [1], the half-inhibitory concentration (IC50) amounted to 27.1 ± 3.7 nM and the “fold lower affinity to the FR-α compared to the oxidized form” value is listed as “about 17 fold”.

Consider `CN1c2c(nc(N)[nH]c2=O)NC[C@H]1CNc1ccc(C(=O)N[C@@H](CCC(=O)O)C(=O)O)cc1` [Compound 6R-5-MTHF, 6R-5-MTHF, reference compound], for which the concentration for half-maximal inhibition (IC50) in data set [1] (setting [5]) is 25.8 ± 5.8 nM.

For the molecule `CN1c2c(nc(N)[nH]c2=O)NC[C@H]1CNc1ccc(C(=O)N[C@@H](CCC(=O)O)C(=O)O)c(F)n1` [Compound 6S-1, 6S-3′-Aza-2′-Fluoro-5-Methyltetrahydrofolate], in data set [1], the 50% inhibitory concentration (IC50) is 23.8 ± 4 nM and the “fold lower affinity to the FR-α compared to the oxidized form” value is on record as “about 17 fold”.

On to `CN1c2c([nH]c(N)nc2=O)NC[C@@H]1CNc1ccc(C(=O)N[C@@H](CCC(=O)O)C(=O)O)cc1` [Compound 6S-5-MTHF, 6S-5-MTHF, reference compound], for which the IC50 in data set [1] (setting [5]) came out at 20.6 ± 0.4 nM.

The values above are taken from patent publication US12023390B2, “Isomerically pure 18F-labelled tetrahydrofolates” (MERCK PATENT GMBH, priority 2017, dated 2024).
